Results: ChEMBL document CHEMBL5550204, “Discovery of ZJCK-6-46: A Potent, Selective, and Orally Available Dual-Specificity Tyrosine Phosphorylation-Regulated Kinase 1A Inhibitor for the Treatment of Alzheimer's Disease” (J Med Chem, 2024)
Activity calls are given as the source filed them. The calls are words filed in the database; no cut-off is given here.

Assays:
Mus musculus [1] = experiment: Antialzheimer activity in okadaic acid-induced cognitive impairment C57BL/6 mouse assessed as decrease in memory deficit at 10 to 30 mg/kg,po once daily for 2 weeks by Morris water maze test; type: functional, organism-based; conditions: dose 10-30 mg/kg
[2] = target: Dual specificity tyrosine-phosphorylation-regulated kinase 1B (Homo sapiens, UniProt Q9Y463); experiment: Inhibition of DYRK1B (unknown origin) at 1 uM preincubated with enzyme for 10 mins followed by substrate and ATP addition measured after 60 mins by ADP-Glo reagent based assay relative to control; conditions: time 70.0 min
Dual specificity tyrosine-phosphorylation-regulated kinase 1B, sequence (Q9Y463 whole entry, looked up): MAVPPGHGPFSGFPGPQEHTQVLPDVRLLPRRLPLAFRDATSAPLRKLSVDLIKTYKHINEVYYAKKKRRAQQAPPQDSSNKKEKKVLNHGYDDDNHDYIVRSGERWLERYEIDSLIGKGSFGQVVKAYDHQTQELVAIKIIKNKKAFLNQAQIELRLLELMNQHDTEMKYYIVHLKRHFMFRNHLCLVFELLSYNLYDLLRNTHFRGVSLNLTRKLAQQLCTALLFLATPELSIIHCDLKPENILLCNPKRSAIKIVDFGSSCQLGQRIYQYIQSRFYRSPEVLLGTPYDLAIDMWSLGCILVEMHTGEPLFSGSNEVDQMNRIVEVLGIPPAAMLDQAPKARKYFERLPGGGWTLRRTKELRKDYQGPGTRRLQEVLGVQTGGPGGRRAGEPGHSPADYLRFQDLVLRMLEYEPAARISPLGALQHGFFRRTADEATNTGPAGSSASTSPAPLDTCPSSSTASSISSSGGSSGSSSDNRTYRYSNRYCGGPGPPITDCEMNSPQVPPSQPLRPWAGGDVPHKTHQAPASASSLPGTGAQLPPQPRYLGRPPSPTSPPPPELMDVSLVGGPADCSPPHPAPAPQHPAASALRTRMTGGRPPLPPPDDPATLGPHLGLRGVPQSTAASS

Mus musculus [3] = experiment: Antialzheimer activity in okadaic acid-induced cognitive impairment C57BL/6 mouse assessed as decrease in learning deficit at 10 to 30 mg/kg,po once daily for 2 weeks by Morris water maze test; type: functional, organism-based; conditions: dose 10-30 mg/kg
[4] = Plasma protein binding in human assessed as bound fraction at 1 uM incubated for 5 hrs by LC-MS/MS analysis; type: ADME, cell-free; conditions: read-out: PPB (converted)
[5] = Toxicity in okadaic acid-induced cognitive impairment C57BL/6 mouse assessed as change in serum GSH level at 10 to 30 mg/kg,po once daily for 2 weeks; type: organism-based; conditions: in vivo, 336 h, dose 10-30 mg/kg
CYP2C9 = CYP2C9 (Homo sapiens, UniProt P11712); experiment: Inhibition of CYP2C9 in human liver microsomes using diclofenac as substrate at 10 uM preincubated for 10 mins followed by NADPH addition and measured after 40 mins by LC-MS/MS analysis relative to control; type: ADME, Microsome; conditions: probe diclofenac, time 50 min
CYP2C9, sequence (P11712 whole entry): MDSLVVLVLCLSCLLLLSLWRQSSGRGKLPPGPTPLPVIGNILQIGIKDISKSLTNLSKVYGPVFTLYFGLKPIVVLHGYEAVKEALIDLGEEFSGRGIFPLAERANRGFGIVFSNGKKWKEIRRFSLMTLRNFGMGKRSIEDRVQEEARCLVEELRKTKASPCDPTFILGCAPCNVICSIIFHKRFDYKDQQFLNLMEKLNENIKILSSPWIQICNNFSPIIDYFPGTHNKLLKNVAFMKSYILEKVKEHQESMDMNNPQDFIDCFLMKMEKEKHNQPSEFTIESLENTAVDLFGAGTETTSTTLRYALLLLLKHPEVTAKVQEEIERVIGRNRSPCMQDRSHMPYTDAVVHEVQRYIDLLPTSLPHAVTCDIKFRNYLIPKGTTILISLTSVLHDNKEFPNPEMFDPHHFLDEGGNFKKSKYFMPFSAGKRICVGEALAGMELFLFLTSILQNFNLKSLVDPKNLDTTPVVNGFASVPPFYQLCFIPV

[6] = Acute toxicity in C57BL/6 mouse assessed as change in liver weight at 500 mg/kg,po observed after 14 days; type: organism-based; conditions: in vivo, 336 h, time 14 day
[7] = Acute toxicity in C57BL/6 mouse assessed as change in heart weight at 500 mg/kg,po observed after 14 days; type: organism-based; conditions: in vivo, 336 h, time 14 day
CYP1A2 = CYP1A2 (Homo sapiens, UniProt P05177); experiment: Inhibition of CYP1A2 in human liver microsomes using phenacetin as substrate at 10 uM preincubated for 10 mins followed by NADPH addition and measured after 40 mins by LC-MS/MS analysis relative to control; type: ADME, Microsome; conditions: probe phenacetin, time 50 min
Mus musculus [8] = experiment: Antialzheimer activity in okadaic acid-induced cognitive impairment C57BL/6 mouse assessed as downregulation of Tau phosphorylation at Thr212 residue in hippocampal DG region at 10 to 30 mg/kg,po once daily for 2 weeks by immunohistochemical staining analysis; type: functional, organism-based; conditions: dose 10-30 mg/kg
[9] = Toxicity in okadaic acid-induced cognitive impairment C57BL/6 mouse assessed as change in serum TBIL level at 10 to 30 mg/kg,po once daily for 2 weeks; type: organism-based; conditions: in vivo, 336 h, dose 10-30 mg/kg
[10] = Acute toxicity in C57BL/6 mouse assessed as histopathological change in kidney at 500 mg/kg,po observed after 14 days by hematoxylin-eosin staining based analysis; type: organism-based; conditions: in vivo, 336 h, time 14 day
[11] = Drug concentration in Sprague-Dawley rat plasma at 10 mg/kg,po measured after 6 hrs by LC-MS/MS analysis; type: ADME, organism-based
CYP3A4 = CYP3A4 (Homo sapiens, UniProt P08684); experiment: Inhibition of CYP3A4 in human liver microsomes using testosterone as substrate at 10 uM preincubated for 10 mins followed by NADPH addition and measured after 40 mins by LC-MS/MS analysis relative to control; type: ADME, Microsome; conditions: probe testosterone, time 50 min
CYP3A4, sequence (P08684 whole entry): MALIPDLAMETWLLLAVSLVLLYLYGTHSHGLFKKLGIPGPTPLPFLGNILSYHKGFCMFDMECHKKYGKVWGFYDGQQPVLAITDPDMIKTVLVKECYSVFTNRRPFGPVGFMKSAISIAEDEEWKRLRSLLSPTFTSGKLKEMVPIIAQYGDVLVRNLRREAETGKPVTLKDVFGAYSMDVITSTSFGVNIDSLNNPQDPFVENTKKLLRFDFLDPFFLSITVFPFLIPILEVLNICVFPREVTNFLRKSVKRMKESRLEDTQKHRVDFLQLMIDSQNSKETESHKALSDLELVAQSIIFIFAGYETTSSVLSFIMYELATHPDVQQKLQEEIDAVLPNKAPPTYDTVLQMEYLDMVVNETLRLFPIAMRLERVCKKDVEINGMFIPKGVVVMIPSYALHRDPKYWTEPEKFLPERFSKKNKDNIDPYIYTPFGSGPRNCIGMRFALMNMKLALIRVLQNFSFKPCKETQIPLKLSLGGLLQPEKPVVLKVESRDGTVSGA

HEK-293T = experiment: Cytotoxicity against human HEK293T cells expressing human Tau P301L mutant at 20 uM incubated for 24 hrs by MTT assay; type: toxicity, cell-based
Mus musculus [12] = experiment: Antialzheimer activity in okadaic acid-induced cognitive impairment C57BL/6 mouse assessed as downregulation of Tau phosphorylation at Thr212 residue in temporal cortex at 10 to 30 mg/kg,po once daily for 2 weeks by ELISA; type: functional, organism-based; conditions: dose 10-30 mg/kg
Cytochrome P450 2C9 = Cytochrome P450 2C9 (Homo sapiens, UniProt P11712); experiment: Inhibition of CYP2C9 in human liver microsomes using diclofenac as substrate preincubated for 10 mins followed by NADPH addition and measured after 40 mins by LC-MS/MS analysis; type: ADME, Microsome
Cytochrome P450 2C9, sequence (P11712 whole entry): as the sequence (P11712 whole entry) above

[13] = target: Dual specificity tyrosine-phosphorylation-regulated kinase 4 (Homo sapiens) (UniProt Q9NR20); experiment: Inhibition of DYRK4 (unknown origin) at 1 uM preincubated with enzyme for 10 mins followed by substrate and ATP addition measured after 60 mins by ADP-Glo reagent based assay relative to control; conditions: time 70.0 min
Dual specificity tyrosine-phosphorylation-regulated kinase 4 (Homo sapiens), sequence (Q9NR20 whole entry): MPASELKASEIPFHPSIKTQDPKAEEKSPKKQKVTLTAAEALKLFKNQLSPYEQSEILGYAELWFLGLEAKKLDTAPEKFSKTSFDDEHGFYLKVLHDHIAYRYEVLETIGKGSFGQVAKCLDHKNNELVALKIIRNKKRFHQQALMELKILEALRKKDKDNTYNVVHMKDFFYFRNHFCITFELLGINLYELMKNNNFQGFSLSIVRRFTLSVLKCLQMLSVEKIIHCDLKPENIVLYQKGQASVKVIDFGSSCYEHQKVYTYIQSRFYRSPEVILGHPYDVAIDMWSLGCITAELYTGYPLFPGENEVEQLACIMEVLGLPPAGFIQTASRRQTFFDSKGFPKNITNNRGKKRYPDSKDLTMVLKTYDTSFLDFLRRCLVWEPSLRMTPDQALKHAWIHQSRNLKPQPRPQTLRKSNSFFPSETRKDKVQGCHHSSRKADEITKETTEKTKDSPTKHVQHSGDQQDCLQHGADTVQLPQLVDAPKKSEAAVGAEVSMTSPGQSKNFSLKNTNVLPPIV

[14] = Half life in Sprague-Dawley rat at 10 mg/kg,po measured upto 24 hrs by LC-MS/MS analysis; type: ADME, organism-based; conditions: in vivo
[15] = Metabolic stability in human liver microsomes assessed as half life at 1 uM incubated upto 45 mins in presence of NADPH by LC-MS/MS analysis; type: ADME, Microsome
[16] = target: Dual specificity protein kinase CLK3 (Homo sapiens, UniProt P49761); experiment: Inhibition of CLK3 (unknown origin) at 1 uM preincubated with enzyme for 10 mins followed by substrate and ATP addition measured after 60 mins by ADP-Glo reagent based assay relative to control; conditions: time 70.0 min
Dual specificity protein kinase CLK3, sequence (P49761 whole entry, looked up): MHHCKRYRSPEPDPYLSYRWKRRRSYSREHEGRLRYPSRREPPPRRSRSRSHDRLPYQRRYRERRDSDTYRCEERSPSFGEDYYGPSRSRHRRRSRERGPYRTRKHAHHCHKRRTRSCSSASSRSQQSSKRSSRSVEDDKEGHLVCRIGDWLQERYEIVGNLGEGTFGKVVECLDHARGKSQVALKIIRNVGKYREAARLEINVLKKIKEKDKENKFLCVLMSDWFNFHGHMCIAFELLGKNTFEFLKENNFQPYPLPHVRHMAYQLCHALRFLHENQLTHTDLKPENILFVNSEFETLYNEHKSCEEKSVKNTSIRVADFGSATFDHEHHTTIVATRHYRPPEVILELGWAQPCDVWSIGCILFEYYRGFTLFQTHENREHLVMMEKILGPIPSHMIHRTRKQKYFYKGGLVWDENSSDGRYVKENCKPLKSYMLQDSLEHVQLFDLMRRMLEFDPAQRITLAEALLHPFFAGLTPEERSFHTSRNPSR

[17] = MRT (0 to infinity) in Sprague-Dawley rat at 2 mg/kg,iv measured upto 24 hrs by LC-MS/MS analysis; type: ADME, organism-based; conditions: in vivo
[18] = target: Dual specificity tyrosine-phosphorylation-regulated kinase 3 (Homo sapiens) (UniProt O43781); experiment: Inhibition of DYRK3 (unknown origin) at 1 uM preincubated with enzyme for 10 mins followed by substrate and ATP addition measured after 60 mins by ADP-Glo reagent based assay relative to control; conditions: time 70.0 min
Dual specificity tyrosine-phosphorylation-regulated kinase 3 (Homo sapiens), sequence (O43781 whole entry): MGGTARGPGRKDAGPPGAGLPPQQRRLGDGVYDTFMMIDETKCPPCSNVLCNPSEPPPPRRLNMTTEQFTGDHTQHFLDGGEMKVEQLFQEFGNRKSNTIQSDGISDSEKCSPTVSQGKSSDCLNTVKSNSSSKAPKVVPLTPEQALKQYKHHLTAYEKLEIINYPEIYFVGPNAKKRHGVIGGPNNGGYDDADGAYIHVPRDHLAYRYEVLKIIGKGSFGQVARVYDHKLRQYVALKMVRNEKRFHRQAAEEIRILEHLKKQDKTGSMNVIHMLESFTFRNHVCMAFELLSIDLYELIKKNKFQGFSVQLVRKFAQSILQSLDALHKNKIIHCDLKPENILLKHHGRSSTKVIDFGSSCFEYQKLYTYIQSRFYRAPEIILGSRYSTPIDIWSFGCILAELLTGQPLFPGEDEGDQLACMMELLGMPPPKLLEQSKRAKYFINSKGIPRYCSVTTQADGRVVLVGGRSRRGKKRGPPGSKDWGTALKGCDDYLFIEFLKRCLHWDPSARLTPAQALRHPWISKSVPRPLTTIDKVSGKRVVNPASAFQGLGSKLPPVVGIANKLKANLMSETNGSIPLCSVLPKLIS

[19] = Toxicity in okadaic acid-induced cognitive impairment C57BL/6 mouse assessed as change in serum AKP level at 10 to 30 mg/kg,po once daily for 2 weeks; type: organism-based; conditions: in vivo, 336 h, dose 10-30 mg/kg
[20] = MRT (0 to infinity) in Sprague-Dawley rat at 10 mg/kg,po measured upto 24 hrs by LC-MS/MS analysis; type: ADME, organism-based; conditions: in vivo
[21] = AUC (0 to infinity) in Sprague-Dawley rat at 10 mg/kg,po measured upto 24 hrs by LC-MS/MS analysis; type: ADME, organism-based; conditions: in vivo
[22] = Drug concentration in Sprague-Dawley rat brain at 10 mg/kg,po measured after 6 hrs by LC-MS/MS analysis; type: ADME, organism-based; conditions: read-out: Ct
[23] = AUC (0 to t) in Sprague-Dawley rat at 10 mg/kg,po measured upto 24 hrs by LC-MS/MS analysis; type: ADME, organism-based; conditions: in vivo
[24] = Drug concentration in Sprague-Dawley rat plasma at 10 mg/kg,po measured after 2 hrs by LC-MS/MS analysis; type: ADME, organism-based
[25] = target: Dual specificity tyrosine-phosphorylation-regulated kinase 2 (Homo sapiens) (UniProt Q92630); experiment: Inhibition of DYRK2 (unknown origin) at 1 uM preincubated with enzyme for 10 mins followed by substrate and ATP addition measured after 60 mins by ADP-Glo reagent based assay relative to control; conditions: time 70.0 min
Dual specificity tyrosine-phosphorylation-regulated kinase 2 (Homo sapiens), sequence (Q92630 whole entry): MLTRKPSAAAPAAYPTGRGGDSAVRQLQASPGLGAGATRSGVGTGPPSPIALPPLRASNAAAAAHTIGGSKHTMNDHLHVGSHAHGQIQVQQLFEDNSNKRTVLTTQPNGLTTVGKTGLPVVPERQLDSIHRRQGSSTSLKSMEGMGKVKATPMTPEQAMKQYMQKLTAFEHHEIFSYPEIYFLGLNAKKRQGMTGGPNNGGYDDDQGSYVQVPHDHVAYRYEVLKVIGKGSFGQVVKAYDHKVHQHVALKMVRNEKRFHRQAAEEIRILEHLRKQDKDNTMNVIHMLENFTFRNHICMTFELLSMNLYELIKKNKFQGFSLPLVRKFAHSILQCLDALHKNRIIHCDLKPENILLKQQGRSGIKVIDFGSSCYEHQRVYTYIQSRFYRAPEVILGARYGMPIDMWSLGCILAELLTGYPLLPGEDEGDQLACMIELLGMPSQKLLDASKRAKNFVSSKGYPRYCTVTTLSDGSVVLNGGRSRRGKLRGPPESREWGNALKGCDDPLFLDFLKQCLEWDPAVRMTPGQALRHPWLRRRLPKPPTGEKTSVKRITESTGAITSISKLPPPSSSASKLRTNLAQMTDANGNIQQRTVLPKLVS

[26] = target: Dual specificity protein kinase CLK1 (Homo sapiens, UniProt P49759); experiment: Inhibition of CLK1 (unknown origin) preincubated with enzyme for 10 mins followed by substrate and ATP addition measured after 60 mins by ADP-Glo reagent based assay
Dual specificity protein kinase CLK1, sequence (P49759 whole entry): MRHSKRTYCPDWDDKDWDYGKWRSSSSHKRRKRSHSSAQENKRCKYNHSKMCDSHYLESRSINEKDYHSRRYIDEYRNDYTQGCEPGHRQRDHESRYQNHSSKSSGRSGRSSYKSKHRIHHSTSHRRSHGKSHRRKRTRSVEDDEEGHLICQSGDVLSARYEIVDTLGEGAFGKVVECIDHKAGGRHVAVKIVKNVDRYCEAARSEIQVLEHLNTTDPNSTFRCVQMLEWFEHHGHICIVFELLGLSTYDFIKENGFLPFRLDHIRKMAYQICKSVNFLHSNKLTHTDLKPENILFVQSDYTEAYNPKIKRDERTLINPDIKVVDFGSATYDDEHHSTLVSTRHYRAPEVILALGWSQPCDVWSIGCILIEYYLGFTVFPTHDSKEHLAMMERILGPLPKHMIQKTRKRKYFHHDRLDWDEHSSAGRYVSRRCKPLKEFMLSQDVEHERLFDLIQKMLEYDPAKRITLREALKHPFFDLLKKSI

Mus musculus [27] = experiment: Antialzheimer activity in okadaic acid-induced cognitive impairment C57BL/6 mouse assessed as downregulation of Tau phosphorylation at Thr212 residue in hippocampus at 10 to 30 mg/kg,po once daily for 2 weeks by ELISA; type: functional, organism-based; conditions: dose 10-30 mg/kg

Cc1ccc2c(-c3ccc4ncnc(N[C@H](CO)c5ccccc5)c4c3)c[nH]c2n1
Activity (Mus musculus [1]): Active
inhibition [2]: 100%
Activity (Mus musculus [3]): Active
fraction unbound at 5 h, 1 µM [4]: 0.0033
Activity [5]: Non-Toxic
inhibition at 40 min, 10 µM (CYP2C9): 96.5%
Activity [6]: Non-Toxic
Activity [7]: Non-Toxic
inhibition at 40 min, 10 µM (CYP1A2): 61.9%
Activity (Mus musculus [8]): Active
Activity [9]: Non-Toxic
Activity [10]: Non-Toxic
concentration at 6 h [11]: 118 ng/mL
inhibition at 40 min, 10 µM (CYP3A4): 63.3%
Activity (HEK-293T): Toxic
Activity (Mus musculus [12]): Active
IC50 (Cytochrome P450 2C9): 240 nM
inhibition [13]: 102%
half-life [14]: 3.95 h
half-life at […], 1 µM [15]: 1.53 h
inhibition [16]: 113%
MRT inf [17]: 4.49 h
inhibition [18]: 98.1%
Activity [19]: Non-Toxic
MRT inf [20]: 5.98 h
AUC(0-inf) [21]: 3010 ng·h/mL
concentration at 6 h [22]: 13.1 ng/g
AUC(0-t) at 24 h [23]: 2990 ng·h/mL
concentration at 2 h [24]: 141 ng/mL
inhibition [25]: 105%
IC50 [26]: 1.68 nM
Activity (Mus musculus [27]): Active
